What was measured:
[1] = molecular target: Cyclin-dependent kinase 2 (Homo sapiens, UniProt P24941); assay: Inhibition of CDK2
HCT-116 = assay: Antiproliferative activity against HCT116 cells by SRB assay after 72 hrs; format: functional; conditions: Homo sapiens, HCT-116, 72 h
[2] = molecular target: Glycogen synthase kinase-3 beta (Homo sapiens, UniProt P49841); assay: Inhibition of GSK3-beta
[3] = molecular target: RAC-alpha serine/threonine-protein kinase (Homo sapiens) (UniProt P31749); assay: Inhibition of AKT at 10 uM
Chain of RAC-alpha serine/threonine-protein kinase (Homo sapiens) (P31749 whole entry): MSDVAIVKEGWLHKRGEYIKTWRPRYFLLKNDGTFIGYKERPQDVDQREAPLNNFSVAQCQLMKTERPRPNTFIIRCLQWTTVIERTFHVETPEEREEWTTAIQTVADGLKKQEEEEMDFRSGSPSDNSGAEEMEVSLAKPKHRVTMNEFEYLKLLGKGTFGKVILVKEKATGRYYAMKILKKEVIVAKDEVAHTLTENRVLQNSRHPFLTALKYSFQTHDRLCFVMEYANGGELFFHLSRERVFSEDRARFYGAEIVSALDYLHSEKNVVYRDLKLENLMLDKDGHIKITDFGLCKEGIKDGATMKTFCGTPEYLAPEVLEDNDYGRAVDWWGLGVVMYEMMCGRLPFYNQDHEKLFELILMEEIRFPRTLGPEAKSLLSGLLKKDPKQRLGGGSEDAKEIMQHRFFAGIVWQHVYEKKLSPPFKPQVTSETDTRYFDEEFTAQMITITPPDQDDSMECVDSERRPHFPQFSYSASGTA

[4] = Inhibition of PKA; set-up: species or system Homo sapiens
[5] = molecular target: T1, Serine/threonine-protein kinase Chk1 (Homo sapiens) (UniProt O14757); assay: Inhibition of Chk1 at 50 uM
T1 sequence (whole entry): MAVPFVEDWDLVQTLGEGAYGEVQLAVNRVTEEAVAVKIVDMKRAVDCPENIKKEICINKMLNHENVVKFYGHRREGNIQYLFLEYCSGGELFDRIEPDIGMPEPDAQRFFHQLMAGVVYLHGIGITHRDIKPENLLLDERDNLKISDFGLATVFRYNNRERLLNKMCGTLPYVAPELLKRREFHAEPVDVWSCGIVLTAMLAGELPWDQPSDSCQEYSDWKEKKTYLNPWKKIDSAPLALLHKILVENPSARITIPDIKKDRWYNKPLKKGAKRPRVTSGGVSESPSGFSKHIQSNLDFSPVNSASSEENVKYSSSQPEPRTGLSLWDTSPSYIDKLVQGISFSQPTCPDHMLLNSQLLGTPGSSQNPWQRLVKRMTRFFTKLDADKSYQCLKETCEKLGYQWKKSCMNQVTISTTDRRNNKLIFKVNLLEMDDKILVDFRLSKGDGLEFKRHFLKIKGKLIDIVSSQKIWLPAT

Chain of Glycogen synthase kinase-3 beta (P49841 whole entry): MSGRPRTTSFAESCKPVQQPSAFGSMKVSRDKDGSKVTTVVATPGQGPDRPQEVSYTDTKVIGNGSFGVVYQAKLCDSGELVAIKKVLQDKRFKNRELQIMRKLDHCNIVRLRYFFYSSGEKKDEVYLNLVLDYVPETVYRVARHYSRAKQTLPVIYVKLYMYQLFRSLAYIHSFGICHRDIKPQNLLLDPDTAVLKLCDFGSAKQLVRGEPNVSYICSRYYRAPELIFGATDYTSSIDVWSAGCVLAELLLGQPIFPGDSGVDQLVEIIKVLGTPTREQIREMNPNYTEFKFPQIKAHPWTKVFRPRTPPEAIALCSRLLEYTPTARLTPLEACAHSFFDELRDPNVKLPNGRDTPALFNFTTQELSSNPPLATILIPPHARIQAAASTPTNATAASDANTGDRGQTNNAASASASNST

Row | Structure (SMILES) | IC50 [1] [µM] | GI50 (HCT-116) [µM] | IC50 [2] [µM] | inhibition [3] [%] | IC50 [4] [µM] | inhibition [5] [%]
1 | N=C1NC(=O)/C(=C/c2ccc(-c3ccc(C(N)=O)cc3)o2)S1 | 9.3 | > 80 | – | – | – | –
2 | N=C1NC(=O)/C(=C/c2ccc(-c3ccc(S(N)(=O)=O)cc3)o2)S1 | – | > 80 | 0.25 | 54 | 77 | 44
3 | NS(=O)(=O)c1ccc(-c2ccc(/C=C3\SC(=O)NC3=O)o2)cc1 | – | > 80 | – | – | – | –
4 | N=C1NC(=O)/C(=C/c2ccc(-c3ccc(C(=O)O)cc3)o2)S1 | – | > 80 | – | – | – | –
5 | N=C1NC(=O)/C(=C/c2ccc(-c3ccc(S(=O)(=O)N4CCNCC4)cc3)o2)S1 | 2.9 | > 80 | – | – | – | –
6 | N=C1NC(=O)/C(=C/c2ccc(-c3ccc(S(=O)(=O)N4CCOCC4)cc3)o2)S1 | 150 | – | – | – | – | –
7 | CN(C)CCNS(=O)(=O)c1ccc(-c2ccc(/C=C3\SC(=N)NC3=O)o2)cc1 | 0.57 | > 80 | 0.51 | – | – | –

Other lines, results leading:

Row | IC50 [1] [µM] | GI50 (HCT-116) [µM] | IC50 [2] [µM] | inhibition [3] [%] | IC50 [4] [µM] | inhibition [5] [%] | Structure (SMILES)
8 | – | > 80 | 0.002 | – | – | – | N=C1NC(=O)/C(=C/c2ccc(-c3ccc(S(N)(=O)=O)c(C(F)(F)F)c3)o2)S1
9 | – | > 80 | 0.43 | – | – | – | C/C(=C1/SC(=N)NC1=O)c1ccc(-c2ccc(S(N)(=O)=O)cc2)o1
10 | 19 | > 80 | – | – | – | – | N=C1NC(=O)/C(=C/c2ccc(-c3ccccc3[N+](=O)[O-])o2)S1
11 | 0.57 | > 80 | 0.014 | – | – | – | N=C1NC(=O)/C(=C/c2ccc(-c3ccc(S(N)(=O)=O)c(Cl)c3)o2)S1
12 | – | > 80 | 0.08 | – | – | – | CNS(=O)(=O)c1ccc(-c2ccc(/C=C3\SC(=N)NC3=O)o2)cc1
